# Assays:
# B2M gene = test: B2M reactivation by DNMT1 inhibitor 5-azadC in transfected HEK293T cells cultured for 58 days; assay type: cell-based, human; settings: HEK293T transfected with construct + B2M-targeting gRNA; 0 to 20 μM 5-azadC
# Source text: LTRP configuration 5 containing the ZIM3-KRAB domain, which was generated as described in Example 1, and CasX variant 491 were used in this experiment. A B2M-targeting gRNA with scaffold 174 containing spacer 7.37 (SEQ ID NO: 1904) or a non-targeting gRNA containing spacer 0.0 (SEQ ID NO: 1906) were used in this experiment.
# PCSK9 mRNA = PCSK9 mRNA RT-qPCR dose response (IC50, IC90, Emax) in primary human hepatocytes treated with LNPs; assay type: cell-based; settings: day 5
# Procedure: (§1) Two lots (lot #271 and lot #31) of primary human hepatocytes (Lonza Biologics) were plated at density of 65K cells/well. Twenty-four hours later, plates were stamped with the indicated total encapsulated RNA dose of single formulations ALC-0315 LNP (1:1 ratio, pre-incubated with human serum overnight) at the indicated dose in triplicate wells for each condition. Doses tested for each mRNA:gRNA pair (Table 60) were 2400, 800, 270, 90, 30, 10, 0.1, and 0.01 ng/well total encapsulated RNA.
# For rounds 1 and 2, cells were immediately lysed in 100 uL DNA RNA shield™ and stored at […] after the day 5 media collection.
# Extracted mRNA was processed and analyzed by RT-qPCR. Measurement ofPCSK9 mRNA expression is performed using a single-step RT-qPCR approach. 50 uL lysate was used to extract total RNA using Zymo 96 RNA extraction kits. Total RNA was then reverse transcribed into cDNA and PCSK9 transcript quantified in reference to a GAPDH endogenous control by quantitative PCR using TaqMan probes. Percent change in mRNA was calculated by comparing to samples treated with a non-targeting sequence.
# (§2) The ability of pairs of mRNA:gRNA comprising scaffold 316 and an PCSK9-targeting sequence to reduce secretion of PCSK9 and PCSK9 mRNA reduction was assessed. […]
# human PCSK9 locus [1] = test: Secreted PCSK9 dose response (IC50, IC90, Emax) in primary human hepatocytes treated with LNPs; assay type: cell-based; settings: day 5
# Procedure: PCSK9 knockdown in primary human hepatocytes, provided an experimental basis for lipofection of gRNA comprising one of the four top editing targeting sequences (Table 59) into PHH cells for assessment of PCSK9 secretion and mRNA reduction. Dose response curves were generated from two lots of PHH cells with three rounds of triplicate wells for each condition. The highest tested dose, 2400 ng/well total encapsulated RNA, was used to measure mRNA expression changes between treated and naïve cells via RNA-seq.
# as §1, with “RNA. […]” for “RNA.”
# Secreted PCSK9 levels in the media supernatant were analyzed using the BioLegend® ELISA MAX™ kit following the manufacturer's instructions.
# as §2
# human PCSK9 locus [2] = test: Secreted PCSK9 ELISA in Huh7 cells transfected with mRNA and gRNA; assay type: cell-based; settings: for normalized secreted PCSK9 level: days 6, 18, 36
# Procedure: The following three human hepatocyte cancer cell lines were used in this experiment: HepG2 cells, Hep3B cells, and Huh7 cells. ~15,000 cells of each cell line were seeded in each well of a 96-well plate. The next day, seeded cells were transfected with mRNA encoding a catalytically-active CasX 676, dXR1, or LTRP5-ADD-ZIM3 and a gRNA with scaffold 316 and spacer targeting either the B2M or PCSK9 locus (see Table 12 for specific spacers and sequences). Media supernatant was harvested at 4 days post-transfection to assess level of PCSK9 secretion by ELISA, and levels of PCSK9 secretion were normalized to total cell count, as illustrated in FIGS. 2A-2C. Culturing of treated Huh7 cells continued, and media supernatant was harvested at 14 and 27 days post-transfection for measuring PCSK9 secretion by ELISA. As an additional experimental control, PCSK9 secretion was also measured in the media supernatant harvested from wells containing untreated, naïve cells.
# To assess PCSK9 secretion, seeded Huh7 cells were transfected with mRNA encoding a catalytically-active CasX 676, dXR1, or LTRP5-ADD-ZIM3 and a gRNA with scaffold 316 and a spacer targeting either the B2M or PCSK9 locus. Media supernatant was harvested at 6, 18, and 36 days post-transfection to assess level of PCSK9 secretion by ELISA. Levels of PCSK9 secretion were normalized to total cell count. As an additional control, PCSK9 secretion was also measured in the media supernatant harvested from wells containing untreated, naïve cells.
# mouse PCSK9 locus = test: Intracellular PCSK9 staining by flow cytometry in Hepa1-6 cells lipofected with mRNA and PCSK9-targeting gRNA; assay type: cell-based
# Procedure: Transfection of mRNA and gRNA into Hepa1-6 cells and intracellular PCSK9 staining were performed as described in Example 6. Briefly, each well of seeded Hepa1-6 cells was transfected with 300 ng of mRNA encoding LTRP5-ZIM3 or LTRP5-ADD-ZIM3 and 150 ng of PCSK9-targeting gRNA with spacer 27.88 or 27.94. Intracellular levels of PCSK9 protein were measured at various timepoints, up to day 53 post-transfection using an intracellular staining protocol as described earlier in Example 6. A non-targeting gRNA was used as an experimental control.
# Seeded Hepa1-6 cells treated with the NATE™ inhibitor were lipofected with 300 ng of mRNA encoding dXR1 or LTRP1-ZIM3 (Table 36) and 150 ng of a PCSK9-targeting gRNA (Table 37). Seven different gRNAs with spacers spanning the promoter region of the mouse PCSK9 locus were tested, in addition to a sequence complementary to the human PCSK9 gene that served as the non-targeting control (Table 37). Cells were harvested at 6, 13, and 25 days after transfection to measure intracellular levels of the PCSK9 protein using an intracellular flow cytometry staining protocol. Briefly, cells were fixed using 4% paraformaldehyde in PBS, permeabilized, and stained using a mouse anti-PCSK9 primary antibody (R&D Systems), followed by a fluorescent goat anti-mouse IgG secondary antibody (Thermo Fisher). Fluorescence levels were measured using the Attune™ NxT flow cytometer, and data were analyzed using the FlowJo™ software. Cell populations were gated using the non-targeting gRNA as a negative control.
# Seeded Hepa1-6 cells treated with the NATE™ inhibitor were lipofected with 300 ng of mRNA encoding LTRP1-ZIM3, LTRP5-ZIM3, catalytically-active CasX 491, or dCas9-ZNF10-DNMT3A/3L, and 150 ng of PCSK9-targeting gRNA (Table 37). Intracellular levels of PCSK9 protein were measured at day 7, 14, 21, 36, and 71 days post-transfection using an intracellular staining protocol as described for experiment #1.
compound,measurement,setting,value
"Nc1ncn([C@H]2C[C@H](O)[C@@H](CO)O2)c(=O)n1 [5-azadC, 5-aza-2′-deoxycytidine]",reactivation of the B2M gene upon 5-azadC treatment,B2M gene,resulted in a reactivation of the B2Mgene
"TG-06-154: NHP-conserved TSS-proximal TTC spacer targeting the human PCSK9 locus (Table 40) (guide AGGGUGUGGGUGCUUGACGC; spacer within gRNA, v1 profile: 2'-OMe and phosphorothioate on first and last three gRNA nucleotides, further chemistry not given here)",potency in reducing PCSK9 mRNA levels,PCSK9 mRNA,the most potent LTRP spacer
same,potency in reducing secreted PCSK9 protein,human PCSK9 locus [1],the most potent LTRP spacer
"TG-06-352: spacer targeting human PCSK9, positioned beyond the 1100 bp threshold window (guide UCCCUCACCAAUUACCCCUC; spacer within gRNA, v1 profile: 2'-OMe and phosphorothioate on first and last three gRNA nucleotides, further chemistry not given here)",normalized secreted PCSK9 level,"human PCSK9 locus [2]; Huh7, spacer paired with LTRP5-ADD-ZIM3, compared with spacer 6.1 paired with CasX 676 and controls",effective repression
dXR1: dCasX fused to ZIM3-KRAB; protein SEQ ID NO 2008,repression of PCSK9 secretion relative to naïve control at day 4,"human PCSK9 locus [2]; Huh7, spacer 6.138, days 4, 14, 27","initial strong repression at day 4, this repressive effect was transient"
same,normalized secreted PCSK9 level,"human PCSK9 locus [2]; Huh7, spacer 6.138",transient repression
same,knockdown of PCSK9 secretion (normalized to total cell count),"human PCSK9 locus [2]; Huh7 compared with HepG2 and Hep3B cells, 4 days post-transfection",most efficient knockdown of PCSK9 secretion
same,degree of PCSK9 repression compared with LTRP1-ZIM3,"mouse PCSK9 locus; day 6, e.g. spacers 27.92 and 27.100",the degree of repression was less substantial when paired with certain spacers
same,persistence of PCSK9 repression,"mouse PCSK9 locus; days 6, 13, 25",transient repression
"spacer 27.94: gRNA spacer targeting the mouse PCSK9 locus, SEQ ID NO 2014 (guide CCCCUCUUAAUCCCCACUCC; listed as RNA, chemistry not given here)",durability of PCSK9 repression,"mouse PCSK9 locus; paired with LTRP5-ZIM3 or LTRP5-ADD-ZIM3 mRNA, day 53",more durable repression than use of spacer 27.88

# Reference: patent US20260240958A1, “REPRESSOR FUSION PROTEIN SYSTEMS” (Scribe Therapeutics Inc., priority 2023, published 2026)
